Nine compounds from patent US9695155B2, “Herbicidal substituted pyrimidinyloxy benzene compounds” (E. I. DU PONT DE NEMOURS AND COMPANY, priority 2013, dated 2017) can be followed below.

Each structure is given as a SMILES string.

One assay relates to Russian thistle. As to the kind of experiment: Test D preemergence. The format is in vivo, Salsola kali. Further details: key: 0 = no effect, 100 = complete control. The text has this: Seeds of plant species selected from bluegrass (annual bluegrass, Poa annua), blackgrass (Alopecurus myosuroides), canarygrass (littleseed canarygrass, Phalaris minor), chickweed (common chickweed, Stellaria media), galium (catchweed bedstraw, Galium aparine), bromegrass, downy (downy bromegrass, Bromus tectorum), field poppy (Papaver rhoeas), field violet (Viola arvensis), green foxtail (Setaria viridis), deadnettle (henbit deadnettle, Lamium amplexicaule), Italian ryegrass (Lolium multiflorum), kochia (Kochia scoparia), lambsquarters (Chenopodium album), oilseed rape (Brassica napus), pigweed (Amaranthus retroflexus), chamomile (scentless chamomile, Matricaria inodora), Russian thistle (Salsola kali), speedwell (bird's-eye speedwell, Veronica persica), spring barley (Hordeum vulgare), spring wheat (Triticum aestivum), wild buckwheat (Polygonum convolvulus), wild mustard (Sinapis arvensis), wild oat (Avena fatua), wild radish (Raphanus raphanistrum), windgrass (Apera spica-venti), winter barley (Hordeum vulgare), and winter wheat (Triticum aestivum) were planted into a silt loam soil and treated preemergence with test chemicals formulated in a non-phytotoxic solvent mixture which included a surfactant.
At the same time, these species were planted in pots containing Redi-Earth® planting medium (Scotts Company, 14111 Scottslawn Road, Marysville, Ohio 43041) comprising spaghnum peat moss, vermiculite, wetting agent and starter nutrients and treated with postemergence applications of the test chemicals formulated in the same manner. Plants ranged in height from 2 to 18 cm (1- to 4-leaf stage). Treated plants and controls were maintained in a controlled growth environment for 7 to 21 days after which time all species were compared to controls and visually evaluated. Plant response ratings, summarized in Table D, are based on a scale of 0 to 100 where 0 is no effect and 100 is complete control. A dash (-) response means no test result.

A further assay deals with barley, winter. Put plainly: Test C postemergence. The class given is in vivo, Hordeum vulgare. The note with it: for Plant response rating (0 to 100), Barley: postemergence; for Plant response rating, Barley: Postemergence, scale 0 to 100 (0 no effect, 100 complete control). The source says: (§1) Seeds of plant species selected from blackgrass (Alopecurus myosuroides), Italian ryegrass (Lolium multiflorum), wheat, winter (winter wheat, Triticum aestivum), galium (catchweed bedstraw, Galium aparine), corn (Zea mays), large (Lg) crabgrass (Digitaria sanguinalis), giant foxtail (Setaria faberii), johnsongrass (Sorghum halepense), lambsquarters (Chenopodium album), morningglory (Ipomoea coccinea), yellow nutsedge (Cyperus esculentus), pigweed (Amaranthus retroflexus), ragweed (common ragweed, Ambrosia elatior), soybean (Glycine max), barnyardgrass (Echinochloa crus-galli), oilseed rape (Brassica napus), waterhemp (common waterhemp, Amaranthus rudis), kochia (Kochia scoparia), wild oat (Avena fatua), surinam grass (Brachiaria decumbens), foxtail, green (green foxtail, Setaria viridis), goosegrass (Eleusine indica), bromegrass, downy (downy bromegrass, Bromus tectorum), nightshade (eastern black nightshade, Solanum ptycanthum), cocklebur (common cocklebur, Xanthium strumarium), cupgrass, woolly (woolly cupgrass, Eriochloa villosa), bermudagrass (Cynodon dactylon), sunflower, (common oilseed sunflower, Helianthus annuus), Russian thistle (Salsola kali), and velvetleaf (Abutilon theophrasti) were planted into a blend of loam soil and sand and treated preemergence with test chemicals formulated in a non-phytotoxic solvent mixture which included a surfactant.
(§2) At the same time, plants selected from these crop and weed species and also barley, winter (winter barley, Hordeum vulgare), windgrass (Apera spica-venti), chickweed (common chickweed, Stellaria media), deadnettle (henbit deadnettle, Lamium amplexicaule), and canarygrass (littleseed canarygrass, Phalaris minor) were planted in pots containing Redi-Earth® planting medium (Scotts Company, 14111 Scottslawn Road, Marysville, Ohio 43041) comprising spaghnum peat moss, vermiculite, wetting agent and starter nutrients and treated with postemergence applications of test chemicals formulated in the same manner. Plants ranged in height from 2 to 18 cm (1- to 4-leaf stage) for postemergence treatments. Treated plants and controls were maintained in a greenhouse for 13 to 15 days, after which time all species were compared to controls and visually evaluated. Plant response ratings, summarized in Table C, are based on a scale of 0 to 100 where 0 is no effect and 100 is complete control. A dash (-) response means no test result.

For the next assay, the system named is windgrass. Put plainly: Test C postemergence. The class given is in vivo, Apera spica-venti. The note with it: for Plant response rating (0 to 100), Windgrass: postemergence; for Plant response rating, Windgrass: Postemergence, scale 0 to 100 (0 no effect, 100 complete control).
Text: as §1, §2

The next assay concerns surinam grass. Put plainly: Test C postemergence. The format is in vivo, Brachiaria decumbens. The note with it: for Plant response rating (0 to 100), Surinam Grass: postemergence; for Plant response rating, Surinam Grass: Postemergence, scale 0 to 100 (0 no effect, 100 complete control).
Text: as §1, §2

For another assay, the system named is kochia. As to the kind of experiment: Test C preemergence. The class given is in vivo, Kochia scoparia. The note with it: for Kochia plant response rating: preemergence, scale 0 (no effect) to 100 (complete control); for Plant response rating, Kochia: Preemergence, 31 g ai/ha, scale 0 to 100, 0 no effect, 100 complete control.
Text: as §1, §2

Assay [1] deals with waterhemp_RES1 (ALS & Triazine resistant common waterhemp). Put plainly: Test E postemergence. The format is in vivo, Amaranthus rudis. In outline: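 Test chemicals formulated in a non-phytotoxic solvent mixture containing a surfactant were applied preemergence to seeds in silt loam soil or postemergence to plants at the 1- to 4-leaf stage in potting mix. After 14 to 21 days in a greenhouse, injury was visually rated against controls on a 0-100 scale (0 = no effect, 100 = complete control).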

Where [2] appears, read: 31 g ai/ha, scale 0 (no effect) to 100 (complete control).
Setting [3] is: Postemergence, 31 g ai/ha, scale 0 to 100.
Where [4] appears, read: Postemergence, 62 g ai/ha, scale 0 to 100.
[5] abbreviates: Postemergence, 125 g ai/ha, scale 0 to 100.
[6] abbreviates: postemergence, 8 g ai/ha, scale 0 to 100, 0 no effect, 100 complete control.
Where [7] appears, read: postemergence, 16 g ai/ha, scale 0 to 100, 0 no effect, 100 complete control.
The mark [8] stands for this setting: Postemergence, 250 g ai/ha, scale 0 to 100.

Regarding `Clc1cnc(Oc2ccccc2-n2cc(Cl)cn2)nc1` [Compound 3], the “Plant response rating, Russian Thistle” value in the assay on Russian thistle (16 g ai/ha, scale 0 (no effect) to 100 (complete control)) amounted to 0; in the assay with Russian thistle (setting [2]), 0; in the assay on Russian thistle (62 g ai/ha, scale 0-100), 30; in the assay on Russian thistle (125 g ai/ha, scale 0-100), 40; in the assay with Russian thistle (250 g ai/ha, scale 0-100), 40.
For `Clc1cnc(Oc2ccccc2-n2cc(Br)cn2)nc1` [Compound 7, 2-[2-(4-bromo-1H-pyrazol-1-yl)phenoxy]-5-chloropyrimidine], the “Plant response rating, Russian Thistle” value stood at 0 with Russian thistle (setting [2]); 0 with Russian thistle (62 g ai/ha, scale 0-100); 0 in the assay on Russian thistle (125 g ai/ha, scale 0-100); 0 in the assay with Russian thistle (250 g ai/ha, scale 0-100). Also, the “Plant response rating (0 to 100), Barley” value is 10 with barley, winter (125 g ai/ha) and 15 in the assay on barley, winter (250 g ai/ha). Also, the “Plant response rating, Barley” value was determined as 0 in the assay on barley, winter (31 g ai/ha, 13 to 15 days) and 0 in the assay on barley, winter (62 g ai/ha). Moreover, the “Plant response rating (0 to 100), Windgrass” value in the assay on windgrass (125 g ai/ha) worked out at 55; with windgrass (250 g ai/ha), 80. The “Plant response rating, Windgrass” value in the assay on windgrass (31 g ai/ha, 13 to 15 days) is 10; in the assay with windgrass (62 g ai/ha), 55. For the same compound, the “Plant response rating (0 to 100), Surinam Grass” value in the assay on surinam grass (125 g ai/ha) is on record as 30. The “Plant response rating, Surinam Grass” value is recorded as 15 in the assay on surinam grass (31 g ai/ha, 13 to 15 days) and 20 with surinam grass (62 g ai/ha). Moreover, the “Kochia plant response rating” value stood at 95 with kochia (62 g ai/ha), 100 in the assay on kochia (125 g ai/ha) and 100 in the assay on kochia (250 g ai/ha). Further, the “Plant response rating, Kochia” value with kochia came to 55. For the same compound, the “Plant response rating, Waterhemp_RES1” value in assay [1] (setting [3]) is 80; in assay [1] (setting [4]), 95; in assay [1] (setting [5]), 90; in assay [1] (setting [6]) it was 65; in assay [1] (setting [7]) it was 70.
As for `Fc1cnc(Oc2ccccc2-n2cc(Br)cn2)nc1` [Compound 10, 2-[2-(4-bromo-1H-pyrazol-1-yl)phenoxy]-5-fluoropyrimidine], the “Plant response rating (0 to 100), Barley” value in the assay on barley, winter (125 g ai/ha) was found to be 5; with barley, winter (250 g ai/ha), 10. The “Plant response rating, Barley” value was determined as 0 with barley, winter (31 g ai/ha, 13 to 15 days) and 5 in the assay with barley, winter (62 g ai/ha). In addition, the figures for the “Plant response rating (0 to 100), Windgrass” value in the assay on windgrass (125 g ai/ha) and in the assay with windgrass (250 g ai/ha) were 50 and 65, respectively. The “Plant response rating, Windgrass” value in the assay on windgrass (31 g ai/ha, 13 to 15 days) worked out at 10; with windgrass (62 g ai/ha), 10. For the same compound, the “Plant response rating (0 to 100), Surinam Grass” value in the assay on surinam grass (125 g ai/ha) and in the assay with surinam grass (250 g ai/ha) was 15 in each case. Moreover, the “Plant response rating, Surinam Grass” value with surinam grass (31 g ai/ha, 13 to 15 days) stood at 0; in the assay on surinam grass (62 g ai/ha), 10.
On to `FC(F)(F)c1cnn(-c2ccccc2Oc2ncc(Cl)cn2)c1` [Compound 16], for which the “Plant response rating (0 to 100), Barley” value in the assay on barley, winter (125 g ai/ha) was determined as 10; in the assay with barley, winter (250 g ai/ha) it was 35. Moreover, the “Plant response rating, Barley” value with barley, winter (31 g ai/ha, 13 to 15 days) is 0; in the assay on barley, winter (62 g ai/ha), 5. In addition, the “Plant response rating (0 to 100), Windgrass” value in the assay with windgrass (125 g ai/ha) and with windgrass (250 g ai/ha) was 50 in each case. In addition, the “Plant response rating, Windgrass” value with windgrass (31 g ai/ha, 13 to 15 days) came to 30; in the assay on windgrass (62 g ai/ha), 40. The “Plant response rating (0 to 100), Surinam Grass” value in the assay on surinam grass (125 g ai/ha) and in the assay with surinam grass (250 g ai/ha) was 40 in each case. Also, the “Plant response rating, Surinam Grass” value with surinam grass (31 g ai/ha, 13 to 15 days) was 10; in the assay with surinam grass (62 g ai/ha), 15. The “Kochia plant response rating” value in the assay with kochia (62 g ai/ha) was determined as 80; in the assay with kochia (125 g ai/ha) it was 85; in the assay with kochia (250 g ai/ha), 100. The “Plant response rating, Kochia” value in the assay on kochia is 50. The “Plant response rating, Waterhemp_RES1” value in assay [1] (setting [3]) amounted to 50; in assay [1] (setting [4]), 60; in assay [1] (setting [5]) it was 75; in assay [1] (setting [8]), 95; in assay [1] (setting [7]), 50.
For the compound `FC(F)(F)c1cnn(-c2ccccc2Oc2ncc(Br)cn2)c1` [Compound 18, 5-bromo-2-[2-[4-(trifluoromethyl)-1H-pyrazol-1-yl]phenoxy]pyrimidine], the “Plant response rating, Russian Thistle” value with Russian thistle (setting [2]) worked out at 10; in the assay on Russian thistle (62 g ai/ha, scale 0-100), 25; in the assay with Russian thistle (125 g ai/ha, scale 0-100) it was 40; with Russian thistle (250 g ai/ha, scale 0-100), 95. Further, the “Kochia plant response rating” value is given as 60 in the assay on kochia (62 g ai/ha), 80 with kochia (125 g ai/ha) and 98 in the assay with kochia (250 g ai/ha). In addition, the “Plant response rating, Kochia” value in the assay on kochia worked out at 15.
On to `N#Cc1cccc(Oc2ncc(Cl)cn2)c1-n1cc(C(F)(F)F)cn1` [Compound 58, 3-[(5-chloro-2-pyrimidinyl)oxy]-2-[4-(trifluoromethyl)-1H-pyrazol-1-yl]benzonitrile], for which the “Plant response rating, Waterhemp_RES1” value in assay [1] (setting [3]) was 80; in assay [1] (setting [4]), 95; in assay [1] (setting [5]), 95; in assay [1] (setting [8]) it was 100; in assay [1] (setting [7]) it was 80.
On to `N#Cc1cccc(Oc2ncc(Br)cn2)c1-n1cc(C(F)(F)F)cn1` [Compound 59, 3-[(5-bromo-2-pyrimidinyl)oxy]-2-[4-(trifluoromethyl)-1H-pyrazol-1-yl]benzonitrile], for which the “Plant response rating, Waterhemp_RES1” value was found to be 80 in assay [1] (setting [3]); 90 in assay [1] (setting [4]); 95 in assay [1] (setting [5]); 100 in assay [1] (setting [8]); 70 in assay [1] (setting [7]).
Consider `Clc1cnc(Oc2cccc(Br)c2-n2cc(Br)cn2)nc1` [Compound 65], for which the “Plant response rating, Waterhemp_RES1” value in assay [1] (setting [3]) was determined as 85; in assay [1] (setting [4]) it was 90; in assay [1] (setting [5]), 98; in assay [1] (setting [6]), 65; in assay [1] (setting [7]) it was 70.
With `N#Cc1cccc(Oc2ncc(Cl)cn2)c1-n1cc(-n2ccc(C(F)(F)F)n2)cn1` [Compound 284], the “Plant response rating, Russian Thistle” value in the assay on Russian thistle (setting [2]) was 0; with Russian thistle (125 g ai/ha, scale 0-100), 20; in the assay on Russian thistle (250 g ai/ha, scale 0-100), 30.
